Source: patent publication US20120195857A1, “Hepatitis C Virus Inhibitors” (Bristol-Myers Squibb Company, priority 2010, published 2012)
Read-outs that look alike come from different tables or passages of the source.

Test system: HCV 1b genotype
Experiment: microbe, parasite or virus in culture
Format: cell-based
Conditions: Hepatitis C virus, HCV 1b genotype replicon
Experimental: An HCV Replicon assay was utilized in the present disclosure, and was prepared, conducted and validated as described in commonly owned PCT/US2006/022197 and in O'Boyle et. al. Antimicrob Agents Chemother. 2005 April; 49(4):1346-53. Assay methods incorporating luciferase reporters have also been used as described (Apath.com).
HCV-neo replicon cells and replicon cells containing resistance substitutions in the NSSA region were used to test the currently described family of compounds. […] Ranges are as follows: A =0.5 pM to 10 pM; B=11 pM to 90 pM; C=91 pM to 160 pM; D=[…] to 5 nM.

[1] = read-out: EC50 (Effective 50% inhibitory concentration)

| SMILES | EC50 (read-out: EC50 Range) [nM] | EC50 [1] [nM] |
| --- | --- | --- |
| COC(=O)NC(C(=O)N1[C@@H]2C[C@@H]2C[C@H]1c1ncc(-c2ccc(-c3cc(-c4cnc([C@@H]5C[C@H]6C[C@H]6N5C(=O)[C@@H](NC(=O)OC)C(C)C)[nH]4)cc4c3CCC4)cc2)[nH]1)C(C)C (some centres unmarked) [Example 5] | 0.091 to 0.16 | – |
| COC(=O)N[C@H](C(=O)N1[C@@H]2C[C@@H]2C[C@H]1c1nc(-c2ccc(-c3ccc(-c4ccc(-c5c[nH]c([C@@H]6C[C@H]7C[C@H]7N6C(=O)[C@@H](NC(=O)OC)C(C)C)n5)cc4)c4[nH]ccc34)cc2)c[nH]1)C(C)C [Example 18] | – | 0.00274 |
| COC(=O)N[C@H](C(=O)N1CCC[C@H]1c1ncc(-c2ccc(-c3ccc(-c4cnc([C@@H]5CCCN5C(=O)[C@@H](NC(=O)OC)C5CCOCC5)[nH]4)c4ccccc34)cc2)[nH]1)C1CCOCC1 [Example 2] | 0.011 to 0.09 | – |
| COC(=O)N[C@H](C(=O)N1[C@@H](C)CC[C@H]1c1ncc(-c2ccc(-c3ccc(-c4coc([C@@H]5CC[C@H](C)N5C(=O)[C@@H](NC(=O)OC)C5CCOCC5)n4)c4c3CCC4)cc2)[nH]1)C1CCOCC1 [Example 7] | 0.091 to 0.16 | 0.0942 |
| COC(=O)N[C@H](C(=O)N1[C@@H]2C[C@@H]2C[C@H]1c1ncc(-c2ccc(-c3ccc(-c4cnc([C@@H]5C[C@H]6C[C@H]6N5C(=O)[C@@H](NC(=O)OC)C5CCOCC5)[nH]4)c4nc[nH]c34)cc2)[nH]1)C1CCOCC1 [Example 13] | 0.161 to 5 | 4.18 |
| COC(=O)N[C@H](C(=O)N1[C@@H](C)CC[C@H]1c1ncc(-c2ccc(-c3ccc(-c4cnc([C@@H]5CC[C@H](C)N5C(=O)[C@@H](NC(=O)OC)C5CCOCC5)[nH]4)c4nc[nH]c34)cc2)[nH]1)C1CCOCC1 [Example 14] | 0.161 to 5 | – |
| COC(=O)N[C@H](C(=O)N1[C@@H]2C[C@@H]2C[C@H]1c1ncc(-c2ccc(-c3ccc(-c4cnc([C@@H]5C[C@H]6C[C@H]6N5C(=O)[C@@H](NC(=O)OC)C5CCOCC5)[nH]4)c4c3CCC4)cc2)[nH]1)C1CCOCC1 [Example 4] | 0.011 to 0.09 | – |
| COC(=O)N[C@H](C(=O)N1[C@@H]2C[C@@H]2C[C@H]1c1ncc(-c2ccc(-c3ccc(-c4cnc([C@@H]5C[C@H]6C[C@H]6N5C(=O)[C@@H](NC(=O)OC)C(C)C)[nH]4)c4nc[nH]c34)cc2)[nH]1)C(C)C [Example 12] | 0.011 to 0.09 | 0.0409 |
